Assay results from the supplement of paper PMC10307832.

Key:
Assay in all cases: relative viability (nuclei count vs DMSO), 5 days (fraction); higher = more cells survive
Wnt-C59 + Decitabine = compound: CC1=NC=CC(=C1)C2=CC=C(C=C2)CC(=O)NC3=CC=C(C=C3)C4=CN=CC=C4 [Wnt-C59] + Nc1ncn([C@H]2C[C@H](O)[C@@H](CO)O2)c(=O)n1 [Decitabine] (partner 2 µM)
In short: (§1)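 Medians of duplicate plates are given as relative viability. That measure is the nuclei count in treated wells divided by the count in vehicle wells. Counts were taken on 4× images of lung cancer cell lines in 1536-well plates, 5 days after pin-tool dosing the day after seeding with one drug alone or a fixed anchor-drug dose plus five library-drug doses (not always all listed) in √10 steps.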

Lapatinib + Pictilisib = compound: CS(=O)(=O)CCNCc1ccc(-c2ccc3ncnc(Nc4ccc(OCc5cccc(F)c5)c(Cl)c4)c3c2)o1 [Lapatinib] + CS(=O)(=O)N1CCN(Cc2cc3nc(-c4cccc5[nH]ncc45)nc(N4CCOCC4)c3s2)CC1 [Pictilisib] (partner 1 µM)
In short: as §1

Lapatinib + Tozasertib = compound: CS(=O)(=O)CCNCc1ccc(-c2ccc3ncnc(Nc4ccc(OCc5cccc(F)c5)c(Cl)c4)c3c2)o1 [Lapatinib] + Cc1cc(Nc2cc(N3CCN(C)CC3)nc(Sc3ccc(NC(=O)C4CC4)cc3)n2)n[nH]1 [Tozasertib] (partner 0.1 µM)
In short: as §1

Lapatinib + Olaparib = compound: CS(=O)(=O)CCNCc1ccc(-c2ccc3ncnc(Nc4ccc(OCc5cccc(F)c5)c(Cl)c4)c3c2)o1 [Lapatinib] + O=C(c1cc(Cc2n[nH]c(=O)c3ccccc23)ccc1F)N1CCN(C(=O)C2CC2)CC1 [Olaparib] (partner 8 µM)
In short: as §1

| Cell Line | relative viability (Wnt-C59 + Decitabine; first compound 0.001 µM) | relative viability (Wnt-C59 + Decitabine; first compound 0.01 µM) | relative viability (Wnt-C59 + Decitabine; first compound 0.03162 µM) | relative viability (Wnt-C59 + Decitabine; first compound 0.1 µM) | relative viability (Lapatinib + Pictilisib; first compound 0.06325 µM) | relative viability (Lapatinib + Pictilisib; first compound 0.2 µM) | relative viability (Lapatinib + Pictilisib; first compound 0.6325 µM) | relative viability (Lapatinib + Pictilisib; first compound 2 µM) | relative viability (Lapatinib + Tozasertib; first compound 0.02 µM) | relative viability (Lapatinib + Tozasertib; first compound 0.06325 µM) | relative viability (Lapatinib + Tozasertib; first compound 0.2 µM) | relative viability (Lapatinib + Tozasertib; first compound 0.6325 µM) | relative viability (Lapatinib + Tozasertib; first compound 2 µM) | relative viability (Lapatinib + Olaparib; first compound 0.06325 µM) | relative viability (Lapatinib + Olaparib; first compound 0.2 µM) | relative viability (Lapatinib + Olaparib; first compound 0.6325 µM) | relative viability (Lapatinib + Olaparib; first compound 2 µM) | relative viability (Lapatinib + Pictilisib; first compound 0.02 µM) | relative viability (Lapatinib + Olaparib; first compound 0.02 µM) |
| --- | --- | --- | --- | --- | --- | --- | --- | --- | --- | --- | --- | --- | --- | --- | --- | --- | --- | --- | --- |
| NCI-H1734 | 0.501 | 0.452 | 0.558 | 0.523 | 0.354 | 0.451 | 0.47 | 0.534 | 0.272 | 0.276 | 0.274 | 0.242 | 0.232 | 0.54 | 0.62 | 0.593 | 0.586 |  |  |
| NCI-H727 | 0.91 | 0.902 | 0.901 | 0.997 | 0.246 | 0.434 | 0.357 | 0.343 | 0.602 |  | 0.704 | 0.453 | 0.391 |  | 0.88 | 0.668 | 0.645 | 0.339 | 0.666 |
| A-427 | 0.623 | 0.564 | 0.615 | 0.588 | 0.602 | 0.854 | 0.765 | 0.665 |  | 0.252 | 0.209 | 0.231 | 0.185 | 0.733 | 0.918 | 0.759 | 0.527 |  | 0.744 |
